Source: patent US20250222003A1, “PHARMACEUTICAL COMPOSITION FOR TREATING SOLID TUMORS” (Eisai R&D Management Co., Ltd., priority 2021, published 2025)
Where two headings read alike, the source gives them in different places. Marks after values point to notes of the source that are not given here.

Experiment: Pharmacokinetics of Compound A, phase I dose-escalation part (plasma)
Type: in vivo, human
Details: for AUC(0-t) / Cmax / Tmax / AUC / half-life: human, plasma, oral; for AUC(0-t): read-out: AUC(0-12 h); for half-life: read-out: Effective t1/2 (converted)
Experimental: In the treatment phase, Compound A (an oral formulation containing Compound A) is administered to the subjects of administration in one cycle of 28 days. The subjects continued to receive Compound A until disease progression, development of intolerable side effects, the desire for discontinuation of administration and consent withdrawal by the subjects of administration, or trial discontinuation by the clinical trial client. One cycle is 28 days of administration, and such an abbreviation as “C1D28” indicates the number of cycles and the number of days in the cycle, for example, “C1D28” means the 28th day of cycle 1 (the first cycle). The subjects of administration were hospitalized until the time of […] and took a medical consultation and physical examination at the time of C1D15, and if the principal investigator or sub investigator was judged, from the results, that there were no medical problems, the subjects were allowed to leave the hospital. If administration was to be continued after the completion of the medical consultation and physical examination at the time of C2D1, written consent for continuation was obtained before administration at the time of C2D1.
Tablets containing Compound A are used as Compound A and administered orally repeatedly twice daily (BID). The subjects fasted 2 hours before and 1 hour after administration. The tablets were taken with water and, if possible, at the prescribed time, but if this was not possible, the tablets were taken 8 hours or more after the previous administration.
In the dose-escalation part, blood was collected from the subjects of administration according to the schedule shown in Table 5, and the pharmacokinetics of Compound A was evaluated. In the expansion part, blood was collected from the subjects of administration before the first administration at C1D1 and CID8, 0.5, 1 and 2 hours after the oral administration of Compound A, and before the first administration at C2D1, and the pharmacokinetics of Compound A was evaluated. The data for C1D1 (the first day of the first cycle) corresponds to the results of a single-dose administration, and the data for C1D8 (the eighth day of the first cycle) corresponds to the results after multiple-dose administration for 8 days at 2 doses per 1 day.
a Based on 5 patients; b based on 2 patients; c based on 3 patients. tmax is reported as median (range). All other values are reported as geometric mean (% CV). Parameters with two patients are reported for both patients.

[1] = C1D8, 160 mg BID (n = 2), both patients
[2] = 160 mg, C1D8, 160 mg BID (n = 2), both patients

## C=CCN1CC(=O)N2[C@@H](Cc3ccc(O)cc3F)C(=O)N(Cc3cccc(N4CC(N5CCN(CC)CC5)C4)n3)C[C@@H]2N1C(=O)NCc1ccccc1 [Compound A, (6S,9aS)—N-benzyl-8-({6-[3-(4-ethylpiperazin-1-yl)azetidin-1-yl]pyridin-2-yl}methyl)-6-(2-fluoro-4-hydroxybenzyl)-4,7-dioxo-2-(prop-2-en-1-yl)hexahydro-2H-pyrazino[2,1-c][1,2,4]triazine-1 (6H)-carboxamide]
10-160 mg BID, Tables 6 and 7
  relation of exposure to dosage: exposure amount increased as the dosage of Compound A increased
C1D8, 20 mg BID, based on 2 patients, both patients
  Effective t1/2: 18.0 ^b h
[1]
  C max, ss: 3850 ng/mL
  Effective t1/2: 25.6 h
  t max, ss: 1.00, 1.00 h
10 mg, C1D1, 10 mg BID (n = 3), geometric mean
  AUC(0-t): 131 ng·h/mL
10 mg, C1D1, 10 mg BID (n = 3), geometric mean, read-out: Cmax
  Cmax: 37.2 ng/mL
10 mg, C1D1, 10 mg BID (n = 3), median
  Tmax: 2 h
10 mg, C1D8, 10 mg BID (n = 3), geometric mean, read-out: AUC (0-tau), ss
  AUC: 210 ng·h/mL
10 mg, C1D8, 10 mg BID (n = 3), geometric mean, read-out: C max, ss
  Cmax: 53.9 ng/mL
10 mg, C1D8, 10 mg BID (n = 3), median
  Tmax: 2 h
15 mg, C1D1, 15 mg BID (n = 4), geometric mean
  AUC(0-t): 310 ng·h/mL
15 mg, C1D1, 15 mg BID (n = 4), geometric mean, read-out: Cmax
  Cmax: 135 ng/mL
15 mg, C1D1, 15 mg BID (n = 4), median
  Tmax: 0.75 h
15 mg, C1D8, 15 mg BID (n = 4), geometric mean, read-out: AUC (0-tau), ss
  AUC: 504 ng·h/mL
15 mg, C1D8, 15 mg BID (n = 4), geometric mean, read-out: C max, ss
  Cmax: 159 ng/mL
15 mg, C1D8, 15 mg BID (n = 4), geometric mean
  half-life: 7.1 h
15 mg, C1D8, 15 mg BID (n = 4), median
  Tmax: 0.75 h
20 mg, C1D1, 20 mg BID (n = 3), geometric mean
  AUC(0-t): 501 ng·h/mL
20 mg, C1D1, 20 mg BID (n = 3), geometric mean, read-out: Cmax
  Cmax: 146 ng/mL
20 mg, C1D1, 20 mg BID (n = 3), median
  Tmax: 1 h
20 mg, C1D8, 20 mg BID (n = 3), geometric mean, read-out: AUC (0-tau), ss
  AUC: 866 ng·h/mL
20 mg, C1D8, 20 mg BID (n = 3), geometric mean, read-out: C max, ss
  Cmax: 278 ng/mL
20 mg, C1D8, 20 mg BID (n = 3), median
  Tmax: 0.5 h
20 mg, C1D8, 20 mg BID, based on 2 patients, both patients
  half-life: 12.2 h
30 mg, C1D1, 30 mg BID (n = 3), geometric mean
  AUC(0-t): 349 ng·h/mL
30 mg, C1D1, 30 mg BID (n = 3), geometric mean, read-out: Cmax
  Cmax: 105 ng/mL
30 mg, C1D1, 30 mg BID (n = 3), median
  Tmax: 2 h
30 mg, C1D8, 30 mg BID (n = 3), geometric mean, read-out: AUC (0-tau), ss
  AUC: 396 ng·h/mL
30 mg, C1D8, 30 mg BID (n = 3), geometric mean, read-out: C max, ss
  Cmax: 68.3 ng/mL
30 mg, C1D8, 30 mg BID (n = 3), median
  Tmax: 2 h
45 mg, C1D1, 45 mg BID (n = 4), geometric mean
  AUC(0-t): 865 ng·h/mL
45 mg, C1D1, 45 mg BID (n = 4), geometric mean, read-out: Cmax
  Cmax: 209 ng/mL
45 mg, C1D1, 45 mg BID (n = 4), median
  Tmax: 1 h
45 mg, C1D8, 45 mg BID (n = 4), geometric mean, read-out: AUC (0-tau), ss
  AUC: 1070 ng·h/mL
45 mg, C1D8, 45 mg BID (n = 4), geometric mean, read-out: C max, ss
  Cmax: 199 ng/mL
45 mg, C1D8, 45 mg BID (n = 4), geometric mean
  half-life: 6.59 h
45 mg, C1D8, 45 mg BID (n = 4), median
  Tmax: 3 h
80 mg, C1D1, 80 mg BID (n = 3), geometric mean
  AUC(0-t): 758 ng·h/mL
80 mg, C1D1, 80 mg BID (n = 3), geometric mean, read-out: Cmax
  Cmax: 279 ng/mL
80 mg, C1D1, 80 mg BID (n = 3), median
  Tmax: 2 h
80 mg, C1D8, 80 mg BID (n = 3), geometric mean, read-out: AUC (0-tau), ss
  AUC: 2100 ng·h/mL
80 mg, C1D8, 80 mg BID (n = 3), geometric mean, read-out: C max, ss
  Cmax: 737 ng/mL
80 mg, C1D8, 80 mg BID (n = 3), geometric mean
  half-life: 17.4 h
80 mg, C1D8, 80 mg BID (n = 3), median
  Tmax: 1 h
100 mg, C1D1, 100 mg BID (n = 6), geometric mean
  AUC(0-t): 1420 ng·h/mL
100 mg, C1D1, 100 mg BID (n = 6), geometric mean, read-out: Cmax
  Cmax: 443 ng/mL
100 mg, C1D1, 100 mg BID (n = 6), median
  Tmax: 0.5 h
100 mg, C1D8, 100 mg BID (n = 6), geometric mean, read-out: C max, ss
  Cmax: 862 ng/mL
100 mg, C1D8, 100 mg BID (n = 6), geometric mean
  half-life: 13 h
100 mg, C1D8, 100 mg BID (n = 6), median
  Tmax: 1 h
100 mg, C1D8, 100 mg BID, based on 5 patients, geometric mean, read-out: AUC (0-tau), ss
  AUC: 2700 ng·h/mL
120 mg, C1D1, 120 mg BID (n = 3), geometric mean
  AUC(0-t): 1910 ng·h/mL
120 mg, C1D1, 120 mg BID (n = 3), geometric mean, read-out: Cmax
  Cmax: 557 ng/mL
120 mg, C1D1, 120 mg BID (n = 3), median
  Tmax: 2 h
120 mg, C1D1, 120 mg BID (n = 8, incl. additional cases), geometric mean
  AUC(0-t): 1910 ng·h/mL
120 mg, C1D1, 120 mg BID (n = 8, incl. additional cases), geometric mean, read-out: Cmax
  Cmax: 557 ng/mL
120 mg, C1D1, 120 mg BID (n = 8, incl. additional cases), median
  Tmax: 2 h
120 mg, C1D8, 120 mg BID (n = 3), geometric mean, read-out: AUC (0-tau), ss
  AUC: 2460 ng·h/mL
120 mg, C1D8, 120 mg BID (n = 3), geometric mean, read-out: C max, ss
  Cmax: 737 ng/mL
120 mg, C1D8, 120 mg BID (n = 3), geometric mean
  half-life: 5.49 h
120 mg, C1D8, 120 mg BID (n = 3), median
  Tmax: 1 h
120 mg, C1D8, 120 mg BID (n = 8), based on n = 7 subjects, geometric mean, read-out: AUC (0-tau), ss
  AUC: 2460 ng·h/mL
120 mg, C1D8, 120 mg BID (n = 8), based on n = 7 subjects, geometric mean, read-out: C max, ss
  Cmax: 751 ng/mL
120 mg, C1D8, 120 mg BID (n = 8), based on n = 7 subjects, median
  Tmax: 1 h
160 mg BID, C1D8, read-out: lowest value of AUC(0-tau),ss of the subjects in which vomiting could not be suppressed even after the 5-HT3 receptor antagonist
  AUC: 9060 ng·h/mL
160 mg, C1D1, 160 mg BID (n = 2), both patients
  Tmax: 0.5 h
[2]
  Tmax: 1 h
  half-life: 17.5 h
160 mg, C1D8, 160 mg BID (n = 2), both patients, read-out: C max, ss
  Cmax: 2980 ng/mL
C1D8, read-out: highest value of AUC(0-tau),ss of the subjects in which vomiting could be suppressed by the 5-HT3 receptor antagonist
  AUC: 7640 ng·h/mL
